Assay results published in patent publication US20110015069A1, “Herbicidal Compositions Comprising Pyroxasulfone IV” (BASF SE, priority 2008, published 2011).
Like-named read-outs stand apart in the source and are kept apart here.

Experiments:
Viola arvensis (VIOAR) = assay: greenhouse post-emergence herbicidal activity; assay type: in vivo; settings: for inhibition at 94 g/ha / inhibition at 25 g/ha / inhibition at 100 g/ha: Viola arvensis, read-out: observed % activity; for observed activity in % destruction 20 days after treatment: 20 DAT (Table 3)
Source text: (§1) For the post-emergence treatment, the test plants were first grown to a height of 3 to 20 cm, depending on the plant habit, and only then treated. Here, the herbicidal compositions were suspended or emulsified in water as distribution medium and sprayed using finely distributing nozzles.
(§2) The respective herbicides A and/or safener were formulated as 10% by weight strength emulsion concentrate and introduced to the spray liquor with the amount of solvent system used for applying the active compound. In the examples, the solvent used was water. Herbicide B and/or safener were used as commercially available formulations and introduced to the spray liquor with the amount of solvent system used for applying the active compound. In the examples, the solvent used was water.
(§3) Metazachlor was used as a commercial aqueous suspension concentrate having an active ingredient concentration of 500 g/l.
(§4) The test period extended over 21 days. During this time, the plants were tended, and their response to the treatments with active compound was evaluated.
(§5) The evaluation for the damage caused by the chemical compositions was carried out using a scale from 0 to 100%, compared to the untreated control plants. Here, 0 means no damage and 100 means complete destruction of the plants.
(§6) The value E, which is to be expected if the activity of the individual compounds is just additive, was calculated using the method of S. R. Colby (1967) “Calculating synergistic and antagonistic responses of herbicide combinations”, Weeds 15, p. 22 ff.
(§7) where X=effect in percent using herbicide A at an application rate a; • Y=effect in percent using herbicide B at an application rate b; • E=expected effect (in %) of A+B at application rates a+b.
(§8) If the value observed in this manner is higher than the value E calculated according to Colby, a synergistic effect is present.

[1] = system: Capsella bursa-pastoris (CAPBP); assay: greenhouse post-emergence herbicidal activity; assay type: in vivo; settings: 20 DAT
Source text: as §1, §2, §3, §4, §5, §6, §7, §8

Veronica persica (VERPE) = assay: greenhouse post-emergence herbicidal activity; assay type: in vivo; settings: 20 DAT
Source text: as §1, §2, §3, §4, §5, §6, §7, §8

[2] = system: Matricaria inermis (MATIN); assay: greenhouse post-emergence herbicidal activity; assay type: in vivo; settings: 20 DAT
Source text: as §1, §2, §3, §4, §5, §6, §7, §8

Thlaspi arvense (THLAR) = assay: greenhouse pre-emergence herbicidal activity; assay type: in vivo; settings: read-out: observed % activity; for inhibition at 47 g/ha: metazachlor 47 g ai/ha; for inhibition at 94 g/ha: metazachlor 94 g ai/ha; for inhibition at 187 g/ha: metazachlor 187 g ai/ha; for inhibition at 6.25 g/ha: pyroxasulfone 6.25 g ai/ha; for inhibition at 12.5 g/ha: pyroxasulfone 12.5 g ai/ha; for inhibition at 25 g/ha: pyroxasulfone 25 g ai/ha; for inhibition at 50 g/ha: pyroxasulfone 50 g ai/ha
Source text: (§9) For the pre-emergence treatment, directly after sowing the active compounds, which had been suspended or emulsified in water, were applied by means of finely distributed nozzles. The containers were irrigated gently to promote germination and growth and subsequently covered with transparent plastic hoods until plant had rooted. This cover caused uniform germination of the tests plants, unless this was adversely affected by active compounds.
as §2, §3, §4, §5, §6, §7, §8

Bromus inermis (BROIN) = assay: greenhouse pre-emergence herbicidal activity; assay type: in vivo; settings: read-out: observed % activity; for inhibition at 47 g/ha: metazachlor 47 g ai/ha; for inhibition at 12.5 g/ha: pyroxasulfone 12.5 g ai/ha; for inhibition at 25 g/ha: pyroxasulfone 25 g ai/ha
Source text: as §9, §2, §3, §4, §5, §6, §7, §8

[3] = system: Capsella bursa-pastoris (CAPBP); assay: greenhouse pre-emergence herbicidal activity; assay type: in vivo; settings: read-out: observed % activity; for inhibition at 47 g/ha: metazachlor 47 g ai/ha; for inhibition at 94 g/ha: metazachlor 94 g ai/ha; for inhibition at 6.25 g/ha: pyroxasulfone 6.25 g ai/ha; for inhibition at 25 g/ha: pyroxasulfone 25 g ai/ha; for inhibition at 50 g/ha: pyroxasulfone 50 g ai/ha
Source text: as §9, §2, §3, §4, §5, §6, §7, §8

[4] = system: Matricaria inermis (MATIN); assay: greenhouse pre-emergence herbicidal activity; assay type: in vivo; settings: read-out: observed % activity; for inhibition at 47 g/ha: metazachlor 47 g ai/ha; for inhibition at 6.25 g/ha: pyroxasulfone 6.25 g ai/ha; for inhibition at 25 g/ha: pyroxasulfone 25 g ai/ha
Source text: as §9, §2, §3, §4, §5, §6, §7, §8

Galium aparine (GALAP) = assay: greenhouse pre-emergence herbicidal activity; assay type: in vivo; settings: read-out: observed % activity; for inhibition at 47 g/ha: metazachlor 47 g ai/ha; for inhibition at 50 g/ha: pyroxasulfone 50 g ai/ha
Source text: as §9, §2, §3, §4, §5, §6, §7, §8

[5] = known from Y. Yamaji et al., 2006; cited from earlier work

With `Cc1cccc(C)c1N(Cn1cccn1)C(=O)CCl` [metazachlor] the inhibition at 94 g/ha (Viola arvensis (VIOAR); 168 h, metazachlor 94 g ai/ha, 7 DAT) was 30%, the inhibition at 94 g/ha (Viola arvensis (VIOAR); 480 h, metazachlor 94 g ai/ha, 20 DAT) was 0% and the “observed activity in % destruction 20 days after treatment” value (Viola arvensis (VIOAR); metazachlor 94 g ai/ha) was 0%. The “observed activity in % destruction 20 days after treatment” value ([1]; metazachlor 94 g ai/ha) was 45%, the “observed activity in % destruction 20 days after treatment” value (Veronica persica (VERPE); metazachlor 94 g ai/ha) was 60% and the “observed activity in % destruction 20 days after treatment” value (Veronica persica (VERPE); metazachlor 187 g ai/ha) was 80%. For the same compound, the “observed activity in % destruction 20 days after treatment” value ([2]; metazachlor 187 g ai/ha) was 60%, the “observed activity in % destruction 20 days after treatment” value ([2]; metazachlor 750 g ai/ha) was 80% and the inhibition at 47 g/ha (Thlaspi arvense (THLAR); 192 h, 8 DAT) was 20%. For the same compound, the inhibition at 94 g/ha (Thlaspi arvense (THLAR); 192 h, 8 DAT) was 30%, the inhibition at 187 g/ha (Thlaspi arvense (THLAR); 192 h, 8 DAT) was 45% and the inhibition at 47 g/ha (Thlaspi arvense (THLAR); 480 h, 20 DAT) was 0%. It also gave an inhibition at 94 g/ha (Thlaspi arvense (THLAR); 480 h, 20 DAT) of 0%, an inhibition at 187 g/ha (Thlaspi arvense (THLAR); 480 h, 20 DAT) of 30% and an inhibition at 47 g/ha (Bromus inermis (BROIN); 192 h, 8 DAT) of 35%. The inhibition at 47 g/ha (Bromus inermis (BROIN); 480 h, 20 DAT) was 30%, the inhibition at 47 g/ha ([3]; 192 h, 8 DAT) was 40% and the inhibition at 94 g/ha ([3]; 192 h, 8 DAT) was 40%. The inhibition at 47 g/ha ([3]; 480 h, 20 DAT) was 70%, the inhibition at 94 g/ha ([3]; 480 h, 20 DAT) was 80% and the inhibition at 47 g/ha ([4]; 192 h, 8 DAT) was 20%. For the same compound, the inhibition at 47 g/ha ([4]; 480 h, 20 DAT) was 35%, the inhibition at 47 g/ha (Galium aparine (GALAP); 192 h, 8 DAT) was 30% and the inhibition at 47 g/ha (Galium aparine (GALAP); 480 h, 20 DAT) was 35%.
In the case of `Cn1nc(C(F)(F)F)c(CS(=O)(=O)C2=NOC(C)(C)C2)c1OC(F)F` [pyroxasulfone, 3-[5-(difluoromethoxy)-1-methyl-3-(trifluoromethyl)pyrazol-4-ylmethylsulfonyl]-4,5-dihydro-5,5-dimethyl-1,2-oxazole], the post-emergence activity [5] is listed as “poor”, the inhibition at 25 g/ha (Viola arvensis (VIOAR); 168 h, pyroxasulfone 25 g ai/ha, 7 DAT) is listed as 0% and the inhibition at 100 g/ha (Viola arvensis (VIOAR); 168 h, pyroxasulfone 100 g ai/ha, 7 DAT) is listed as 50%. For the same compound, the inhibition at 25 g/ha (Viola arvensis (VIOAR); 480 h, pyroxasulfone 25 g ai/ha, 20 DAT) was 0%, the inhibition at 100 g/ha (Viola arvensis (VIOAR); 480 h, pyroxasulfone 100 g ai/ha, 20 DAT) was 65% and the “observed activity in % destruction 20 days after treatment” value (Viola arvensis (VIOAR); pyroxasulfone 25 g ai/ha) was 0%. For the same compound, the “observed activity in % destruction 20 days after treatment” value (Viola arvensis (VIOAR); pyroxasulfone 100 g ai/ha) was 65%, the “observed activity in % destruction 20 days after treatment” value ([1]; pyroxasulfone 25 g ai/ha) was 35% and the “observed activity in % destruction 20 days after treatment” value (Veronica persica (VERPE); pyroxasulfone 100 g ai/ha) was 90%. The “observed activity in % destruction 20 days after treatment” value ([2]; pyroxasulfone 25 g ai/ha) was 0%, the “observed activity in % destruction 20 days after treatment” value ([2]; pyroxasulfone 50 g ai/ha) was 0% and the “observed activity in % destruction 20 days after treatment” value ([2]; pyroxasulfone 100 g ai/ha) was 20%. The inhibition at 6.25 g/ha (Thlaspi arvense (THLAR); 192 h, 8 DAT) was 30%, the inhibition at 12.5 g/ha (Thlaspi arvense (THLAR); 192 h, 8 DAT) was 40% and the inhibition at 25 g/ha (Thlaspi arvense (THLAR); 192 h, 8 DAT) was 60%. The inhibition at 50 g/ha (Thlaspi arvense (THLAR); 192 h, 8 DAT) was 60%, the inhibition at 6.25 g/ha (Thlaspi arvense (THLAR); 480 h, 20 DAT) was 20% and the inhibition at 12.5 g/ha (Thlaspi arvense (THLAR); 480 h, 20 DAT) was 30%. It also gave an inhibition at 25 g/ha (Thlaspi arvense (THLAR); 480 h, 20 DAT) of 80%, an inhibition at 50 g/ha (Thlaspi arvense (THLAR); 480 h, 20 DAT) of 80% and an inhibition at 12.5 g/ha (Bromus inermis (BROIN); 192 h, 8 DAT) of 50%. The inhibition at 25 g/ha (Bromus inermis (BROIN); 192 h, 8 DAT) was 50%, the inhibition at 12.5 g/ha (Bromus inermis (BROIN); 480 h, 20 DAT) was 50% and the inhibition at 25 g/ha (Bromus inermis (BROIN); 480 h, 20 DAT) was 60%. It also gave an inhibition at 6.25 g/ha ([3]; 192 h, 8 DAT) of 40%, an inhibition at 25 g/ha ([3]; 192 h, 8 DAT) of 60% and an inhibition at 50 g/ha ([3]; 192 h, 8 DAT) of 60%. It also gave an inhibition at 6.25 g/ha ([3]; 480 h, 20 DAT) of 40%, an inhibition at 25 g/ha ([3]; 480 h, 20 DAT) of 95% and an inhibition at 50 g/ha ([3]; 480 h, 20 DAT) of 95%. For the same compound, the inhibition at 6.25 g/ha ([4]; 192 h, 8 DAT) was 0%, the inhibition at 25 g/ha ([4]; 192 h, 8 DAT) was 20% and the inhibition at 6.25 g/ha ([4]; 480 h, 20 DAT) was 20%. It also gave an inhibition at 25 g/ha ([4]; 480 h, 20 DAT) of 50%, an inhibition at 50 g/ha (Galium aparine (GALAP); 192 h, 8 DAT) of 60% and an inhibition at 50 g/ha (Galium aparine (GALAP); 480 h, 20 DAT) of 80%.
